Measurements from US10072035B2, “Phenanthroline phosphonic acid derivative and preparation method therefor and application thereof” (Guangzhou Beryl Therapeutics, Inc, priority 2014, dated 2018).

Key:
human P4H enzyme = target: T1, human P4H enzyme (Homo sapiens, UniProt P13674); assay: P4H enzymatic activity, coupled succinyl CoA synthase / MLG phosphate assay; format: biochemical; settings: 50 nM P4H, 100 uM 2-oxoglutarate, 45 min at 25° C., n=2, FIG. 1
T1 construct: made in house; host or cells: E. coli Origami2(DE3)
Excerpt: Human recombinant P4H was expressed in E. coli. Briefly, DNA encoding the signal sequence of P4H was cloned into pET28_N-His_TEV, the resulting plasmid pET28_N-His_TEV_P4HA1/PDI was transferred to E. coli Origami2(DE3) to co-expressed. The enzyme obtained was purified with MonoQ ion-exchange column, TEV digested and confirmed by MS, passed through Histrap HP column, finally purified with Hiload16/60 superdex 200 column.
The measurement of the enzymatic activity of purified P4H zymoprotein and the assay of the influence of the compound to the enzymatic activity were performed at the following coupling enzymatic reaction system: 100 mM Tris (pH7.0), 0.1 mM (NH4)2Fe(SO4)2, 0.1 mM ascorbic acid, 0.2 mM CoA, 0.2 mM ATP, 0.5 uM succinyl CoA synthase, 100 uM 2-oxoglutarate, 100 uM (Pro-Pro-Gly)10peptide, 50 nM P4H enzyme, 50 ul total. After 45 min reaction at 25° C., 10 ul MLG R1 was added and reacted for 10 min, 10 ul MLG R2 was added and reacted for 20 min. P4H catalyst 2-oxoglutaric acid and polypeptide with coenzyme and suitable enzyme reaction environment to give product succinic acid. The product succinic acid then produced succinyl CoA and phosphoric acid with the action of succinyl CoA synthase. The level of generated phosphoric acid could be measured by MLG, which reflects the level of P4H. The generated green product (MG+)(H2PMo12O40) was measured at OD 630 nm. […]

[1] = Concentration of compound 16c and 9c in liver after PO dosing of compound 27; format: in vivo, Wistar rats; settings: rat; for concentration at 0.25 h / concentration at 0.75 h / concentration at 8 h / concentration at 24 h: both sexes, Wistar, liver; for concentration at 0.25 h: 0.25 h after oral administration of compound 27 (39 mg/kg); for concentration at 0.75 h: 0.75 h after oral administration of compound 27 (39 mg/kg); for concentration at 8 h: 8 h after oral administration of compound 27 (39 mg/kg); for concentration at 24 h: 24 h after oral administration of compound 27 (39 mg/kg); for Conversion of prodrug in vivo: after PO dosing of compound 27
Description: 16 Wistar rats (200±20 g) were divided into 4 groups randomly, female and male each half in each group, ate and drank freely before the experiment. After PO dosing of compound 27 (39 mg·kg^−1), rats were sacrificed at each time point 15 min, 45 min, 8 h, 24 h. Liver samples were collected, washed off blood and contents with saline, cut into small pieces, and stirred evenly. 1 g was weighed. 1 mL Methanol/water was added. After homogenated, additional 1 mL methanol/water was added. The mixture was sonicated for 15 seconds, centrifuged (4500 rpm) for 10 minutes. The upper clear solution was tested using LC-MS/MS method to give the concentration of compound 16c and 9c in liver at different time points after administration (table 2).

myocardial infarction = settings: in vivo; cited from earlier work
hepatic stellate cells = settings: cited from earlier work
[2] = cited from earlier work
[3] = system: BDL rats having liver fibrosis; assay: Bile Duct Ligation induced liver fibrosis model in rats; format: in vivo, Wistar rats
Excerpt: This experiment used Bile Duct Ligation to induce liver fibrosis model in rats. Treatment of BDL rats with PO dosing prodrug 27 was studied.
Briefly, Wistar rats (200±20 g) were divided into 3 groups, half female and half male in each group:
SHAM group: 6 rats were anaesthetized, the abdominal skin was shaved and sterilized regularly, the common bile duct was exposed by an upper abdominal midline incision with sterile operation. Muscle and skins were sutured separately.
liver fibrosis MODEL group: 12 rats were anaesthetized, the abdominal skin was shaved and sterilized regularly, the common bile duct was exposed and ligated by an upper abdominal midline incision with sterile operation. Muscle and skins were sutured separately.
Dosing group: 12 rats were anaesthetized, the abdominal skin was shaved and sterilized regularly, the common bile duct was exposed and ligated by an upper abdominal midline incision with sterile operation. Muscle and skins were sutured separately. After operation, disodium salt of compound 27 (30 mg/kg) was dissolved in water and dosed orally to the rats once per day test indexes:
After 2 weeks, measure the ALT and AST of serium and liver homogenate
After 2 weeks, rats were sacrificed, and liver performed HE staining and Masson staining.

[4] = In-vivo pharmacokinetics in plasma of rats; parameters: species or system Wistar rats
Description: Wistar rats (200±20 g) were divided into 2 groups, 6 each, half female and half male in each group, ate and drank freely. The first group was given compound 16c 3 mg·kg^−1 caudal-intravenously. The second group was orally administered disodium salt of compound 27 (39 mg·kg^−1). Blood (0.3 mL) was collected from retroorbital vein at time point 0 h, 0.08 h, 0.17 h, 0.33 h, 0.5 h, 0.75 h, 1 h, 1.5 h, 2 h, 3 h, 5 h, 7 h, placed into cold heparinized Eppendorf tubes. The samples were centrifuged at 4° C. (15000 rpm) for 5 min. Transfer 100 μL plasma sample to −80° C. freezer for test.
Quantitative LC-MS/MS analysis methods of compound 9c and prodrug 16c in plasma were set up, using diazepam and mildronate as internal standard, respectively. (Prodrug 27 was not detected under experimental condition from plasma) the plasma sample was tested and analyzed. (result see in Table 1 and FIG. 2)
Oral Bioavailability was calculated according to compound 16c in plasma. Area under concentration-time curve (AUC) of PO dosing was divided by AUC of iv dosing of same amount of drugs, expressed as absorption percentage: Bioavailability (F)=AUCpo·Miv/AUCiv·Mpo×100%. Wherein, Miv means the molar concentration of drugs by iv dosing, and Mpo means the molar concentration of drugs by PO dosing. The AUC0-t of compound 16c in plasma

[5] = both sexes, rat, compound 16c in plasma after compound 16c IV 3 mg/kg, Wistar rats

T1 sequence (P13674 18-534): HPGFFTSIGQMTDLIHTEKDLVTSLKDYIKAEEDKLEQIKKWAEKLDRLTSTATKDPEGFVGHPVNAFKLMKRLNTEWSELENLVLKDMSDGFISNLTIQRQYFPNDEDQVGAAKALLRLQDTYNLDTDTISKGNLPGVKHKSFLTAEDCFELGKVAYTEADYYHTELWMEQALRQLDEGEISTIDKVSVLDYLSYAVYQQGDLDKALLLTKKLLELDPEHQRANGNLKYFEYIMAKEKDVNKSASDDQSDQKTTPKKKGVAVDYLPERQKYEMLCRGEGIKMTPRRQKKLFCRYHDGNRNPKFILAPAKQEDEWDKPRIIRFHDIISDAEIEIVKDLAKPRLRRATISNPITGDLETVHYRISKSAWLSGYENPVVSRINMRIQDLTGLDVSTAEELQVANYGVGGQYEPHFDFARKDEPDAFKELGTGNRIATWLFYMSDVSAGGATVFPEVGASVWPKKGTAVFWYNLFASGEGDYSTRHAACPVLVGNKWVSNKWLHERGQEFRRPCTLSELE
T1 sequence (P07237 18-508 partner): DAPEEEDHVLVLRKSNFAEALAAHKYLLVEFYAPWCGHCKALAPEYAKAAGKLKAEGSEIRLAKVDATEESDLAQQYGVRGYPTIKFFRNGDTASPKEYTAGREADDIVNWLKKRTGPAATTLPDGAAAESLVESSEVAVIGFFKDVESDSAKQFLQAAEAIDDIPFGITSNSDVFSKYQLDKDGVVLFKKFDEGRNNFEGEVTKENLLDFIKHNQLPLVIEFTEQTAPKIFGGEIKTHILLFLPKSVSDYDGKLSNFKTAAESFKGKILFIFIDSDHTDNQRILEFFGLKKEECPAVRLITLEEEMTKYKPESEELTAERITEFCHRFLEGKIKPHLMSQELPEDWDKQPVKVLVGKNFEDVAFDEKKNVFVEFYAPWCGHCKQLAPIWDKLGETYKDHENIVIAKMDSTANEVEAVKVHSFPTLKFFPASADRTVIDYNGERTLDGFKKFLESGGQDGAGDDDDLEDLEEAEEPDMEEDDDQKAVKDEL

## O=P(O)(O)c1cnc2c(ccc3c(O)ccnc32)c1 [Compound 9c, 7-hydroxy-1,10-phenanthrolin-3-yl phosphonic acid]
Human P4H enzyme
  IC50: 8.1 µM
[1]
  concentration at 0.25 h: 16.1 ng/g
  concentration at 0.75 h: 64.2 ng/g
  concentration at 8 h: 44.7 ng/g
  concentration at 24 h: 3.55 ng/g

## O=C(O)c1c[nH]c2c(ccc3cccnc32)c1=O [FG-041, 1,4-dihydrophenanthrol-4-one-3-carboxylic acid]
Myocardial infarction
  myocardial infarction in animal experiment: prevent myocardial infarction

## COCCNC(=O)c1ccnc(C(=O)NCCOC)c1 [HOE077]
Hepatic stellate cells
  activation of hepatic stellate cells: inhibits
  expression of procollagen mRNA: inhibits
  hepatic stellate cells proliferation: reduces
  synthesis of total protein of cell: no effect
[2]
  side effects in clinical trials: severe side effects (cataract)

## O=c1ccn(COP(=O)(O)O)c2c1ccc1cc(P3(=O)OCC[C@@H](c4cccc(Cl)c4)O3)cnc12 (stereo partly drawn) [Compound 27, (3-(4S-4-(3-chlorophenyl)-1,3,2-dioxaphosphinan-2-one-2-yl)-1,10-phenanthrolin-7-one)-10(7H)-methyl phosphoric acid]
[3]; BDL rats, 30 mg/kg PO once per day, 2 weeks, MODEL 144.4 ± 15.94, SHAM 67.1 ± 5.45
  ALT in serum: 74.4 ± 17.82 IU/L
[3]; BDL rats, 30 mg/kg PO once per day, 2 weeks, MODEL 207.2 ± 30.96, SHAM 67.7 ± 4.67
  AST in serum: 87.2 ± 12.51 IU/L
[3]; BDL, PO 30 mpk, 2 weeks, FIG. 5
  H&E staining of rat liver: varies the pathological changes of hepatic tissue
[3]; after 14 days of administration, P<0.01
  ALT and AST of the serium and liver homogenate versus model group: decreased significantly
[3]; liver homogenate, BDL rats, 30 mg/kg PO once per day, 2 weeks, MODEL 136.8 ± 16.48
  ALT in liver: 76.4 ± 11.35 IU/L
[3]; liver homogenate, BDL rats, 30 mg/kg PO once per day, 2 weeks, MODEL 198.75 ± 27.70
  AST in liver: 91.42 ± 8.79 IU/L
[4]; LC-MS/MS, after PO dosing 39 mg/kg
  Detection of prodrug 27 in plasma: not detected
[1]
  Conversion of prodrug in vivo: converted to compound 16c in rat

## O=P1(c2cnc3c(ccc4c(O)ccnc43)c2)OCC[C@@H](c2cccc(Cl)c2)O1 (stereo partly drawn) [Compound 16c, (4S)-4-(3-chlorophenyl)-2-(7-hydroxy-1,10-phenanthrolin-3-yl)-1,3,2-dioxaphosphinan-2-one]
[4]; after compound 16c 3 mg/kg intravenously
  AUC0-t of compound 16c in plasma: 2060 ng·h/mL
[4]; [5]
  AUC(0-inf): 2140 ng·h/mL
  AUC(0-t): 2060 ng·h/mL
[4]; both sexes, rat, compound 16c in plasma after compound 16c IV 3 mg/kg, Wistar rats, read-out: Cmax (peak concentration in plasma)
  Cmax: 1620 ng/mL
[4]; both sexes, rat, compound 16c in plasma after compound 16c IV 3 mg/kg, Wistar rats, read-out: t1/2 (half life of drug in plasma) (converted)
  half-life: 1.5 h
[1]
  concentration at 0.25 h: 522 ng/g
  concentration at 0.75 h: 662 ng/g
  concentration at 8 h: 584 ng/g
  concentration at 24 h: 50.9 ng/g
  Conversion of prodrug in vivo: converted to compound 9c in liver
